Reference: paper PMC12495443, “Developing inhibitors of the guanosine triphosphate hydrolysis accelerating activity of Regulator of G protein Signaling-14 [drawing 1]” (The Journal of Biological Chemistry, 2025)

Assays:
[1] = target: T1, human RGS14 RGS-box (wild-type) (Homo sapiens, UniProt O43566); assay: Transcreener GDP RGScreen fluorescence polarization assay of RGS14 RGS-box GAP activity on Gαi1(DM); format: biochemical
T1 construct: human RGS14 RGS-box (aa 46–195 of UniProt O43566); host or cells: E. coli
T1 sequence (O43566 46-195): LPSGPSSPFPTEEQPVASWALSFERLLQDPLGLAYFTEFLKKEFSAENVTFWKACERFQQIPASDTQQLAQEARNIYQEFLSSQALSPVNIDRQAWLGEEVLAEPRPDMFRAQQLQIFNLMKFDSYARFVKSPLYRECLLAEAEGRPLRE
How it was run: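 Steady-state GTP hydrolysis by rate-altered double point-mutant Gαi1 was read by Transcreener GDP fluorescence polarization, with GTP conversion kept below 10% of maximum input. The E. coli-expressed, N-terminal His6-tagged wild-type RGS-boxes were RGS12 aa 695–843 and RGS14 aa 46–195.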

[2] = target: T2, RGS14 RGS-box (GAP activity on wild-type Gαi1) (Homo sapiens, UniProt O43566); assay: Single-turnover [γ-33P]GTP hydrolysis assay of RGS-box GAP activity; format: biochemical; conditions: wild-type Gαi1, concentration-dependent
T2 sequence (O43566 67-184 limits assumed): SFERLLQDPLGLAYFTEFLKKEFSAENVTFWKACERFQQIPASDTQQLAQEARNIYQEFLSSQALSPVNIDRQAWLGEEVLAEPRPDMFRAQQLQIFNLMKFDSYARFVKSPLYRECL
Source text: To further evaluate the functional activity of these triazolothiadiazine derivatives, and especially to eliminate concerns of misascribing GAP-inhibitory activity to potential assay interference, we tested two representative compounds—Z55660043 and Z55627844—in the gold-standard single-turnover radioactive GTP hydrolysis assay ([7], [58]) (Fig. 6).
The single-turnover radiolabeled-GTP hydrolysis assay is the gold standard assay for RGS-box GAP activity, first described using [γ -^32P]GTP by Berman et al. ([7]) and recently modified for modern performance ([91], [92], [93], [94]) to use readily available [γ-^33P]GTP substrate and perchloric acid quenching. The assay was performed by first pre-loading wild-type (WT) Gα protein (i.e., 750 nM purified, recombinant, wild-type-sequence human Gαi1 protein) with a slight excess (1 μM) of [γ-^33P]GTP for 15 min at 30 °C. Assay initiation involved adding purified recombinant RGS protein previously pre-incubated for 30 min at 30 °C with a candidate inhibitor. […] Supernatant aliquots were then added to liquid scintillation fluid and [^33P]-Pi content (i.e., hydrolyzed GTP) was quantified with a scintillation counter with an appropriate β-transmission window.

With `COc1ccc(OCc2nnc3n2N=C(c2ccc(OC)c(OC)c2)CS3)cc1` [Z55660043, 6-(3,4-dimethoxyphenyl)-3-[(4-methoxy-phenoxy)methyl]-5H-[1,2,4]triazolo[3,4-b][1,3,4]thiadiazine] the “Ratio (RGS14 pIC50 / RGS12 pIC50)” value ([1]; values > 1.0 reflect RGS14 selectivity) was 0.95, the IC50 ([1]; wild-type RGS14 RGS-box GAP activity, Gαi1(DM), Transcreener GDP RGScreen, read-out: RGS14 pIC50 (converted)) was 2290 nM and the “inhibition of RGS14 RGS-box-mediated acceleration of [γ-33P]GTP hydrolysis” value [2] was “inhibit RGS14 RGS-box-mediated acceleration”.
